This is an account of results in ChEMBL document CHEMBL1201862, “PubChem BioAssay data set” (2004).

Some test systems named below: NCI-H460; Malme-3M; DLD-1; SK-MEL-28; SF-295; KM12; CAKI-1; HCT-15; SW-620; NCI-H226; HT-29; A549; HOP-62; SNB-19; SNB-78; EKVX; MOLT-4; SK-OV-3; HOP-92.
Experiment in all cases: growth of human tumour cells (NCI), 48 h

The structures appear in SMILES notation.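 All cell lines were grown in 96-well plates and treated with compound for 48 hours. The concentration for 50% growth inhibition is given as GI50.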 The source made the active and inactive calls. Rule as the data show it: active = GI50 up to about 1.1 µM and inactive = higher. A value given as a limit tells only on which side of the number the result lay.

In the case of `CCOC(=O)[C@H]1Nc2ccc(C)cc2C2c3ccccc3CC21` (some centres not stated), the GI50 in the assay with NCI-H460 was > 100 µM (inactive); in the assay on Malme-3M it was > 100 µM (inactive); in the assay with DLD-1, > 100 µM (inactive); in the assay on SK-MEL-28, > 100 µM (inactive); in the assay with SF-295, 74.1 µM (inactive); in the assay with KM12, > 100 µM (inactive). The GI50 in the assay on CAKI-1 is > 100 µM (inactive); in the assay on HCT-15, over 100 µM; in the assay with SW-620 it was > 100 µM (inactive); in the assay with NCI-H226, > 100 µM (inactive); in the assay on HT-29 it was > 100 µM (inactive); in the assay on A549, > 100 µM (inactive). In addition, the GI50 with HOP-62, in the assay on SNB-19, with SNB-78, in the assay with EKVX and in the assay on MOLT-4 was > 100 µM (inactive) throughout.

With `Cc1ccc(NC(=O)CSc2nnc(Cc3ccccc3)o2)cc1`, the GI50 with NCI-H460, with Malme-3M, with DLD-1, in the assay with SK-MEL-28, with SF-295 and in the assay on KM12 was > 100 µM (inactive) throughout. The GI50 with CAKI-1 is > 100 µM (inactive); with HCT-15, over 100 µM; with SW-620, > 100 µM (inactive); in the assay on NCI-H226, > 100 µM (inactive); in the assay with HT-29, > 100 µM (inactive); in the assay on SK-OV-3 it was > 100 µM (inactive). For the same compound, the GI50 with A549, with HOP-62, with SNB-19, in the assay on SNB-78, in the assay with EKVX and in the assay on MOLT-4 was > 100 µM (inactive) in each case.

`COc1cccc(/C=C2\C(=O)N(C(=O)c3ccc(NC(C)=O)cc3)N=C2C)c1`: the GI50 in the assay with NCI-H460, in the assay on Malme-3M, with DLD-1, in the assay on SK-MEL-28, with SF-295 and with CAKI-1 was > 100 µM (inactive) throughout. For the same compound, the GI50 in the assay on HCT-15 is over 100 µM; with SW-620, > 100 µM (inactive); in the assay with NCI-H226, > 100 µM (inactive); in the assay on HT-29, > 100 µM (inactive); in the assay on A549, > 100 µM (inactive); in the assay with HOP-62 it was > 100 µM (inactive). Besides, the GI50 in the assay with SNB-19, in the assay on SNB-78, in the assay with EKVX and in the assay with MOLT-4 was > 100 µM (inactive) in each case.

On to `CCO/C([O-])=C(\C(=O)c1ccccc1)[n+]1c(C)sc2ccccc21`, for which the GI50 with NCI-H460 was 59.3 µM (inactive); in the assay with Malme-3M it was 96.6 µM (inactive); in the assay with DLD-1, > 100 µM (inactive); with SK-MEL-28 it was > 100 µM (inactive); with SF-295, 64.4 µM (inactive); in the assay with KM12 it was > 100 µM (inactive). The GI50 with CAKI-1 is > 100 µM (inactive); with HCT-15 it was 21.9 µM; in the assay with SW-620, > 100 µM (inactive); in the assay on NCI-H226, > 100 µM (inactive); in the assay on HT-29 it was > 100 µM (inactive); with SK-OV-3, > 100 µM (inactive). The GI50 in the assay with A549 is 45.5 µM (inactive); with HOP-62, > 100 µM (inactive); with SNB-19, > 100 µM (inactive); in the assay with SNB-78, > 100 µM (inactive); in the assay with EKVX, > 100 µM (inactive); in the assay on MOLT-4 it was > 100 µM (inactive).

On to `CC(=O)c1c2c(cc3c1CC1(C3)Cc3cc4c(c(C(=O)O)c3C1)CCC4)CCC2` (configuration not stated), for which the GI50 in the assay with NCI-H460 was 32 µM (inactive); with Malme-3M, 29.4 µM (inactive); with DLD-1, 37.1 µM (inactive); in the assay on SK-MEL-28, 44.5 µM (inactive); in the assay on SF-295, 38.9 µM (inactive); with KM12, 44.2 µM (inactive). Also, the GI50 in the assay on CAKI-1 was 36.9 µM (inactive); with SW-620 it was 48.6 µM (inactive); in the assay on HT-29, 44.5 µM (inactive); in the assay with A549, 30.8 µM (inactive); in the assay with HOP-62 it was 36.5 µM (inactive); with SNB-19, 45.3 µM (inactive). For the same compound, the GI50 is 33.2 µM (inactive) in the assay with HOP-92, 55.6 µM (inactive) in the assay with SNB-78 and 25.9 µM (inactive) with MOLT-4.

Regarding `CC(=O)CC(=O)ON(C)C(=O)Cc1ccccc1`, the GI50 in the assay on NCI-H460, with Malme-3M, with DLD-1, with SK-MEL-28, in the assay with SF-295 and with KM12 was > 100 µM (inactive) throughout. Further, the GI50 is > 100 µM (inactive) with CAKI-1; over 100 µM with HCT-15; > 100 µM (inactive) with SW-620; > 100 µM (inactive) with NCI-H226; > 100 µM (inactive) in the assay with HT-29; > 100 µM (inactive) in the assay with SK-OV-3. The GI50 with A549, with HOP-62, in the assay with SNB-19, with HOP-92, with SNB-78 and with MOLT-4 was > 100 µM (inactive) each time.

Turning to `CC(=O)Oc1cc(Cl)c(OC(C)=O)c2c(OC(C)=O)c(C)c(O[Si](C)(C)C(C)(C)C)cc12`, the GI50 was 3.79 µM (inactive) in the assay on NCI-H460; 1.85 µM (inactive) in the assay on DLD-1; 3.05 µM (inactive) in the assay on SK-MEL-28; 11 µM (inactive) with SF-295; 12.8 µM (inactive) in the assay on KM12; 16 µM (inactive) with CAKI-1. Moreover, the GI50 in the assay on HCT-15 was 4.76 µM; in the assay on SW-620, 2.8 µM (inactive); in the assay on A549, 5.3 µM (inactive); in the assay with HOP-62, 19.1 µM (inactive); in the assay with SNB-19, 12.8 µM (inactive); with HOP-92, 7.52 µM (inactive). Moreover, the GI50 was 3.12 µM (inactive) in the assay on SNB-78, 18.7 µM (inactive) with EKVX and 3.31 µM (inactive) in the assay with MOLT-4.

As for `C/C(CC(=O)Nc1cccc([N+](=O)[O-])c1)=N\NC(=O)CC#N`, the GI50 in the assay with Malme-3M, in the assay with DLD-1, in the assay on SK-MEL-28, in the assay on SF-295, in the assay on KM12 and in the assay with SW-620 was > 100 µM (inactive) in each case. The GI50 in the assay on NCI-H226, with HT-29, in the assay with SK-OV-3, in the assay with A549, in the assay with HOP-62 and in the assay with HOP-92 was > 100 µM (inactive) in each case. Further, the GI50 in the assay with SNB-78, in the assay with EKVX and in the assay with MOLT-4 was > 100 µM (inactive) each time.

Regarding `COc1ccc(C(=O)Cc2ccc(Br)cc2)cc1OC`, the GI50 is > 100 µM (inactive) with NCI-H460; > 100 µM (inactive) in the assay with Malme-3M; > 100 µM (inactive) in the assay on DLD-1; 40 µM (inactive) in the assay on SF-295; > 100 µM (inactive) with CAKI-1; over 100 µM in the assay with HCT-15. Also, the GI50 was > 100 µM (inactive) with SW-620; > 100 µM (inactive) in the assay with NCI-H226; > 100 µM (inactive) with HT-29; > 100 µM (inactive) in the assay on SK-OV-3; > 100 µM (inactive) with A549; 79.1 µM (inactive) with HOP-62. Also, the GI50 with SNB-19, with SNB-78, in the assay on EKVX and with MOLT-4 was > 100 µM (inactive) throughout.

For `COC1(OC)CC2C(=O)N(Cc3ccccc3)C1C(S(=O)(=O)c1ccccc1)C2C(C)S(=O)(=O)c1ccccc1` (configuration not stated), the GI50 with NCI-H460, with Malme-3M, in the assay on DLD-1, in the assay on SK-MEL-28, in the assay with SF-295 and with KM12 was > 100 µM (inactive) each time. In addition, the GI50 in the assay on CAKI-1 is > 100 µM (inactive); in the assay with HCT-15, over 100 µM; in the assay on SW-620, > 100 µM (inactive); in the assay on HT-29 it was > 100 µM (inactive); in the assay on SK-OV-3, > 100 µM (inactive); with A549 it was > 100 µM (inactive). Besides, the GI50 is > 100 µM (inactive) in the assay on HOP-62; > 100 µM (inactive) in the assay on SNB-19; 17 µM (inactive) in the assay on HOP-92; > 100 µM (inactive) in the assay on SNB-78; 85.5 µM (inactive) in the assay with EKVX; > 100 µM (inactive) in the assay with MOLT-4.

In the case of `C/C(=N\O)C(CN(C)C)C(c1ccccc1)c1c(O)c2ccccc2oc1=O` (configuration not stated), the GI50 in the assay on Malme-3M, with DLD-1, in the assay with SK-MEL-28, in the assay on SF-295, in the assay with KM12 and with CAKI-1 was > 100 µM (inactive) in each case. Further, the GI50 was over 100 µM in the assay on HCT-15; > 100 µM (inactive) in the assay on SW-620; > 100 µM (inactive) in the assay with NCI-H226; > 100 µM (inactive) in the assay with HT-29; > 100 µM (inactive) in the assay with SK-OV-3; > 100 µM (inactive) with A549. Besides, the GI50 in the assay on HOP-62 is > 100 µM (inactive); in the assay on SNB-19 it was > 100 µM (inactive); with HOP-92, 34.9 µM (inactive); in the assay with SNB-78 it was > 100 µM (inactive); with EKVX it was > 100 µM (inactive); with MOLT-4, > 100 µM (inactive).

Turning to `COC(=O)C(=O)C(C(=O)C=C(C)C)C(=O)C(=O)Nc1cccc(C(C)=O)c1` (configuration not stated), the GI50 in the assay with NCI-H460, in the assay with Malme-3M, with DLD-1, with SK-MEL-28, in the assay with SF-295 and in the assay with KM12 was > 100 µM (inactive) throughout. The GI50 with CAKI-1 was > 100 µM (inactive); in the assay on HCT-15 it was over 100 µM; in the assay on SW-620, > 100 µM (inactive); with NCI-H226 it was > 100 µM (inactive); with HT-29, > 100 µM (inactive); with SK-OV-3, > 100 µM (inactive). Moreover, the GI50 in the assay on A549, in the assay on HOP-62, in the assay on SNB-19, in the assay with SNB-78, in the assay with EKVX and in the assay on MOLT-4 was > 100 µM (inactive) throughout.
